Assays:
[1] = test system: Staphylococcus aureus ATCC 6538; experiment: Antimicrobial activity, MIC determination; format: cell-based; settings: S. aureus; 24-h incubation, 37°C
Experimental: (§1) The in vitro antimicrobial activity of the compounds was evaluated by determining the minimum inhibitory concentration (MIC) against the Gram-positive microorganisms Staphylococcus aureus ATCC 6538 (S. aureus) and Bacillus subtilis ATCC 6633 (B. subtilis) and the Gram-negative microorganism Xanthomonas campestris ATCC 1395 (X. campestris). The affinity of the compounds for bovine serum albumin (BSA) and human serum albumin (HSA) was studied by fluorescence emission spectroscopy, and the corresponding binding constants were determined. Furthermore, the interaction of the compounds with calf-thymus DNA (CT DNA) was investigated to determine the possible mode of interaction by the following methods: (i) UV–vis spectroscopy (where the DNA-binding constants of the complexes (Kb) were also determined), (ii) DNA-viscosity measurements, (iii) cyclic voltammetry and (iv) competitive DNA-binding studies with the classic intercalator ethidium bromide (EB) performed by fluorescence emission spectroscopy.
(§2) Three bacterial strains, one Gram(−) (X. campestris) and two Gram(+) (S. aureus and B. subtilis), were used in order to test the antimicrobial activity of the compounds.
(§3) The antimicrobial activity of the compounds was evaluated b y determining their respective MIC values towards one Gram–( –) (Xanthomonas campestris ATCC 1395 (X. campestris)) and two Gram–(+) (Staphylococcus aureus ATCC 6538 (S. aureus) and Bacillus subtilis ATCC 6633 (B. subtilis)) bacterial species. Cultures of these microbial strains were grown on a rich selective agar medium and stored at 4°C. The selective media used were Nutrient Agar or Broth for B. subtilis and S. aureus, and Yeast Mold Agar or Broth for X. campestris . Cells picked from the surface of the stored cultures were used to initiate liquid pre–cultures of the same selective medium at an initial turbidity of roughl y 1 McFarland unit. Pre–cultures were incubated for 24 h in a rotar y sh aking incubator and subsequently the y were used to inoculate the test cultures used for the determination of MIC at an initial turbidity of 0.5 McFarland units. The test cultures consisted of Mueller–Hinton broth (Deben Diagnostics Ltd) containing different concentrations of the compounds. Different concentrations were achieved as follows: the compounds were freshly dissolved in DMSO to a concentration of 1 mg/mL and they were diluted with DMSO, using the method of progressive double dilution. Therefore, working solutions with decreasing concentrations of the compounds under investigation were achieved. The working solutions were subsequently diluted to the final desired concentration b y addition to the growth medium at a proportion of 2:98. MIC values were determined as the lowest concentrations of the tested compounds that inhibited visible growth of each respective organism after a 24–h incubation [ S1]. Bacterial growth was determined b y measuring the turbidit y of appropriatel y diluted cultures at 600 nm with reference to equall y diluted sterile growth medium and the inhibition achieved was calculated b y comparing the turbidit y of each culture to the average of the turbidit y of three non–inhibited cultures. All test cultures were grown in triplicates and for the determination of MIC, growth had to be inhibited in at least two cultures of the triplicate. In cubation temperatur e at all stages was 37°C ex cept for X. campestris t h at was cultivated at 28°C [S2]. […]
(§4) The fluorescence spectra of the compounds were recorded under the same experimental conditions and presented a low–intensity emission band in the region 405–410 nm .

[2] = test system: Bacillus subtilis ATCC 6633; experiment: Antimicrobial activity, MIC determination; format: cell-based; settings: B. subtilis; 24-h incubation, 37°C
Experimental: as §1, §2, §3, §4

[3] = test system: Xanthomonas campestris ATCC 1395; experiment: Antimicrobial activity, MIC determination; format: cell-based; settings: X. campestris; 24-h incubation, 28°C
Experimental: as §1, §2, §3, §4

[4] = test system: EB–DNA adduct (CT DNA); experiment: Competitive study with EB (EB–DNA fluorescence quenching); format: binding, calf
Experimental: Ethidium bromide is a typical marker of intercalation because it can intercalate between adjacent DNA bases with its planar phenanthridine ring.
The fluorescence emission spectra of the EB–DNA adduct ([EB] = 20 μM, [DNA] = 26 μM) in the absence and presence of the compounds were recorded at increasing amounts of the respective compounds. […] As a conclusion, an intercalative interaction of the complexes with CT DNA can be proposed.
The values of the Stern–Volmer constants (Ksv) for the compounds were calculated using the linear Stern–Volmer equation (Equation (S2)) and were of the order of 10^5 M^−1 (Table 8), indicating tight binding of the complexes with DNA [61]. The Ksv values for the complexes are in the range found for a number of metal(II)–quinolone complexes, and complex 12 presents the highest Ksv value (Ksv = 7.25(±0.30) × 10^5 M^−1) among the compounds studied. In addition, the EB–DNA quenching constants (kq) for the compounds were calculated with Equation (S3), assuming τo = 23 ns as the fluorescence lifetime. The values of kq (Table 8) are much higher than the value of 10^10 M^−1s^−1, indicating a static mechanism of EB–DNA fluorescence quenching induced by the compounds, which can result from the formation of a new adduct apparently consisting of each complex and DNA [61].
In order to determine and confirm the DNA–binding mode of the compounds, a competitive study with EB as an intercalating marker is performed b y fluorescence emission spectroscopy.
Therefo re, the E B–displacing abilit y of the compounds from its EB –DN A conjugate was ex amined.
The DNA–EB adduct was prepared b y addition of 20 μM EB and 26 μM CT DNA in buffer solution (150 mM NaCl and 15 mM trisodium citrate at pH 7.0). The potential intercalation of the compounds between the DNA–bases was studied by the addition of a certain amount of the compound solution into the EB–DNA adduct solution. The influence of the compounds on the EB – DNA solution was monitored through the changes of the fluorescence emission spectra at excitation […]
wavelen gth (λex ) at 540 nm [S3]. […]
room temperature in solution or in the presence of DNA, under the same experimental conditions (λex = 540 nm). Bearing t hat in mind, the observed quenching of the EB–DNA solution is evidentl y associated to the displacement of EB from its EB–DNA adduct.
The quenching effici ency (KSV) for each compound was assessed according to the Stern – Volmer equation: Io =1+ k τ [Q] = 1+ K [Q], (eq. S2) [S3] where I0 and I = the fluorescence […]
emission intensities of EB–DNA in the absence and presence of the quencher, respectivel y, [Q] = the concentration of the quencher (i.e. compounds). KSV is obtained from t he Stern–Volmer plots b y the slope of the diagram I0/ I versus [Q]. Taking τ0 = 23 ns as the fluorescence lifetime of the EB– DNA s ystem [S5], the EB –DNA quenching constants (k q) of the compounds can be determined accordin g to eq.S3: K SV = kqτo . […]
[S2] Irgi, E.P.; Geromichalos, G.D.; Balala, S.; Kljun, J.; Kalogiannis, S.; Papadopoulos, A.; Turel, I.; Psomas, G. Cobalt(II) complexes with quinolone antimicrobial drug oxolinic acid: […]
[ S 5] Heller, D.P.; Greenstock, C.L. Fluorescence lifetime analysis of DNA intercalated ethidium bromide and quenching by free d ye. Biophys. Chem . 1994, 50, 305–312.

[5] = target: T1, bovine serum albumin (BSA) (Bos taurus, UniProt P02769); experiment: Albumin binding by tryptophan fluorescence emission quenching
T1 construct: purchased
Experimental: (§5) Serum albumins (Sas) are the most abundant serum proteins and play a role in the circulatory system, primarily in the transport of drugs and other bioactive small molecules through the bloodstream.
(§6) The SA-quenching constants (kq) for the compounds (Table 5) were calculated with the Stern–Volmer quenching equation (Equations (S2) and (S3)).
(§7) Albumin-binding constants (K) were calculated using the Scatchard equation (Equation (S4)). […]
(§8) S2. Interaction with serum albumins
(§9) The albumin–binding study for the compounds was carried out b y fluorescence emission

[6] = target: T2, human serum albumin (HSA) (Homo sapiens, UniProt P02768); experiment: as above
T2 construct: purchased
Experimental: as §5, §6, §7, §8, §9

T1 sequence (P02769 25-607): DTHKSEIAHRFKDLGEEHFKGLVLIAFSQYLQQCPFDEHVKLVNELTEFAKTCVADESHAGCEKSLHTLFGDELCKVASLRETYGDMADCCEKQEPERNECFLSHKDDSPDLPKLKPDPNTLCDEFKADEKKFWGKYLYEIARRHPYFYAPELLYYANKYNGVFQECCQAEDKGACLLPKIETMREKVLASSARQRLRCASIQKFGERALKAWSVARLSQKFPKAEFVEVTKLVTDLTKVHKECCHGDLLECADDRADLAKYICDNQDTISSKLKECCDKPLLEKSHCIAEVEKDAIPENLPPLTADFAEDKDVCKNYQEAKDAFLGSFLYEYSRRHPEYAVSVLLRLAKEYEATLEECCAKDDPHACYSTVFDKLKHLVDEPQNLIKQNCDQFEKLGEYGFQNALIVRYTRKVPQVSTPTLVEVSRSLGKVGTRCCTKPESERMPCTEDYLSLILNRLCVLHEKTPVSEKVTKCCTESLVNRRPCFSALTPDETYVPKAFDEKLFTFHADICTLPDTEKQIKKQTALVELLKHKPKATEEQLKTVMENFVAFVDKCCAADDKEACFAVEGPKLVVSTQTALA
T2 sequence (P02768 25-609): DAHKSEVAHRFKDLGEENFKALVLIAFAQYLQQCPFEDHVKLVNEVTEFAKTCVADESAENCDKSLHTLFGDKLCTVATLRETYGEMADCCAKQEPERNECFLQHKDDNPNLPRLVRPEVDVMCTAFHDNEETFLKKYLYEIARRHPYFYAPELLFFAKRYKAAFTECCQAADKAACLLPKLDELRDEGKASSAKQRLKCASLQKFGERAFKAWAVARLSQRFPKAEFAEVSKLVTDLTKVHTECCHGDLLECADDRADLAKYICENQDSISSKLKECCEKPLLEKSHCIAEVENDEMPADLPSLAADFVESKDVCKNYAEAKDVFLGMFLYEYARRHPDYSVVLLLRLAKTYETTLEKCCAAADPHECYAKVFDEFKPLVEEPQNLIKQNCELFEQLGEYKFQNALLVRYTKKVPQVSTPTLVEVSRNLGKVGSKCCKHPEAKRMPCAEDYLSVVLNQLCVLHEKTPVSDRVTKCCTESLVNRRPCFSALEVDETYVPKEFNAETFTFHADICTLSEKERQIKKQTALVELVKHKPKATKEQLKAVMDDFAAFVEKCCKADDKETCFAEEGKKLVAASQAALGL

SMILES: CN1CCN(c2c(F)cc3c(=O)c(C(=O)[O-])cn(CCF)c3c2F)CC1.CN1CCN(c2c(F)cc3c(=O)c(C(=O)[O-])cn(CCF)c3c2F)CC1.[Zn+2].c1cnc2c(c1)ccc1cccnc12 [complex 14, [Zn(flrx)2(phen)]]
- MIC [1]: 8 µg/mL
- MIC (values in parentheses) [1]: 8.1 µM
- MIC [2]: 8 µg/mL
- MIC (values in parentheses) [2]: 8.1 µM
- MIC [3]: 16 µg/mL
- MIC (values in parentheses) [3]: 16.3 µM
- Ksv, Stern–Volmer constant ([4]; EB–DNA adduct): 3.03(±0.05) × 10^5 M^–1
- ΔI/Io, percentage of EB–DNA fluorescence quenching ([4]; [EB] = 20 μM, [DNA] = 26 μM, λexc 540 nm, λem 592 nm): 77.9%
- EB–DNA relative fluorescence emission intensity, % of the initial (I/Io) ([4]; λemission = 592 nm, final value (up to), Figure S14): 22.1%
- kq, EB–DNA quenching constant ([4]; τo = 23 ns): 1.32(±0.02) × 10^13 M^−1s^−1
- K(BSA), BSA-binding constant ([5]; BSA 3 μM, buffer pH 7.0, Scatchard equation): 5.56(±0.25) × 10^4 M^−1
- kq(BSA), BSA-quenching constant ([5]; BSA 3 μM, buffer pH 7.0, λexc 295 nm, Stern–Volmer, τ0 = 10^–8 s): 1.61(±0.07) × 10^13 M^−1s^−1
- BSA fluorescence, % of the initial fluorescence intensity (I/Io) ([5]; λem,max = 342 nm, final value of titration (Figure S11)): 25.8%
- K(HSA), HSA-binding constant ([6]; HSA 3 μM, buffer pH 7.0, Scatchard equation): 6.16(±0.43) × 10^4 M^−1
- kq(HSA), HSA-quenching constant ([6]; HSA 3 μM, buffer pH 7.0, λexc 295 nm, Stern–Volmer, τ0 = 10^–8 s): 1.10(±0.04) × 10^13 M^−1s^−1
- HSA fluorescence, % of the initial fluorescence intensity (I/Io) ([6]; λem,max = 351 nm, final value of titration (Figure S10)): 33.5%

— article PMC9144902, “Metal(II) Complexes of the Fluoroquinolone Fleroxacin: Synthesis, Characterization and Biological Profile” (Pharmaceutics, 2022)
